Patent US10750743B2, “Pyridazinone herbicides” (E.I. DU PONT DE NEMOURS AND COMPANY, priority 2015, dated 2020)

What was measured:
Type in all cases: in vivo
[1] = test system: sedge, umbrella (small-flower umbrella sedge, Cyperus difformis); test: Test B flooded paddy test, visual rating; settings: Flood, 250 g ai/ha, applied to paddy water, rated after 13 to 15 d
Procedure, shortened: (§1)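 Plants grown to the 2-leaf stage. At treatment, pots were flooded to 3 cm above the soil, compound was applied directly to the paddy water, and that depth was held throughout. After 13 to 15 d in the greenhouse, response was rated visually against controls on a 0 (no effect) to 100 (complete control) scale.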

[2] = test system: rice (Oryza sativa); test: Test B flooded paddy test, visual rating; settings: Flood, 250 g ai/ha, applied to paddy water, rated after 13 to 15 d
Procedure, shortened: as §1

[3] = test system: barnyardgrass (Echinochloa crus-galli); test: Test B flooded paddy test, visual rating; settings: Flood, 250 g ai/ha, applied to paddy water, rated after 13 to 15 d
Procedure, shortened: as §1

[4] = test system: ducksalad (Heteranthera limosa); test: Test B flooded paddy test, visual rating; settings: Flood, 250 g ai/ha, applied to paddy water, rated after 13 to 15 d
Procedure, shortened: as §1

[5] = test system: ragweed (common ragweed, Ambrosia elatior); test: Test A preemergence, directed soil spray, visual injury rating; settings: 0 is no effect, 100 is complete control
Procedure, shortened: (§2)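 Compounds in a surfactant-containing solvent were applied as a directed soil spray preemergence, or postemergence to plants 2-10 cm tall at the one- to two-leaf stage, in loam-sand blend. After about 10 d in the greenhouse, injury was rated visually against untreated controls on a 0-100 scale (100 = complete control).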

[6] = test system: pigweed (Amaranthus retroflexus); test: as above; settings: 0 is no effect, 100 is complete control
Procedure, shortened: as §2

[7] = test system: barnyardgrass (Echinochloa crus-galli); test: as above; settings: 0 is no effect, 100 is complete control
Procedure, shortened: as §2

[8] = test system: foxtail, giant (giant foxtail, Setaria faberii); test: as above; settings: 0 is no effect, 100 is complete control
Procedure, shortened: as §2

[9] = test system: ryegrass, It. (Italian ryegrass, Lolium multiflorum); test: as above; settings: 0 is no effect, 100 is complete control
Procedure, shortened: as §2

[10] = test system: kochia (Kochia scoparia); test: as above; settings: 0 is no effect, 100 is complete control
Procedure, shortened: as §2

[11] = test system: wheat (Triticum aestivum); test: Test A postemergence application, visual injury rating; settings: 0 to 100 scale, 0 no effect, 100 complete control
Procedure, shortened: as §2

[12] = test system: ragweed (common ragweed, Ambrosia elatior); test: as above; settings: 0 to 100 scale, 0 no effect, 100 complete control
Procedure, shortened: as §2

[13] = test system: pigweed (Amaranthus retroflexus); test: as above; settings: 0 to 100 scale, 0 no effect, 100 complete control
Procedure, shortened: as §2

[14] = test system: corn (Zea mays); test: as above; settings: 0 to 100 scale, 0 no effect, 100 complete control
Procedure, shortened: as §2

[15] = test system: barnyardgrass (Echinochloa crus-galli); test: as above; settings: 0 to 100 scale, 0 no effect, 100 complete control
Procedure, shortened: as §2

[16] = test system: blackgrass (Alopecurus myosuroides); test: as above; settings: 0 to 100 scale, 0 no effect, 100 complete control
Procedure, shortened: as §2

[17] = test system: foxtail, giant (giant foxtail, Setaria faberii); test: as above; settings: 0 to 100 scale, 0 no effect, 100 complete control
Procedure, shortened: as §2

[18] = test system: ryegrass, It. (Italian ryegrass, Lolium multiflorum); test: as above; settings: 0 to 100 scale, 0 no effect, 100 complete control
Procedure, shortened: as §2

[19] = test system: kochia (Kochia scoparia); test: as above; settings: 0 to 100 scale, 0 no effect, 100 complete control
Procedure, shortened: as §2

[20] = test system: galium (catchweed bedstraw, Galium aparine); test: as above; settings: 0 to 100 scale, 0 no effect, 100 complete control
Procedure, shortened: as §2

| Compound | Sedge, Umbrella plant response rating (0 to 100 scale, 0 is no effect, 100 is complete control) [1] | Rice plant response rating (0 to 100 scale, 0 is no effect, 100 is complete control) [2] | Barnyardgrass plant response rating (0 to 100 scale, 0 is no effect, 100 is complete control) [3] | Ducksalad plant response rating (0 to 100 scale, 0 is no effect, 100 is complete control) [4] | Plant response rating (0 to 100 scale), Ragweed ([5]; 31 g ai/ha) | Plant response rating (0 to 100 scale), Ragweed ([5]; 125 g ai/ha) | Plant response rating (0 to 100 scale), Pigweed ([6]; 31 g ai/ha) | Plant response rating (0 to 100 scale), Pigweed ([6]; 125 g ai/ha) | Plant response rating (0 to 100 scale), Barnyardgrass ([7]; 31 g ai/ha) | Plant response rating (0 to 100 scale), Barnyardgrass ([7]; 125 g ai/ha) | Plant response rating (0 to 100 scale), Foxtail, Giant ([8]; 31 g ai/ha) | Plant response rating (0 to 100 scale), Foxtail, Giant ([8]; 125 g ai/ha) | Plant response rating (0 to 100 scale), Ryegrass, It. ([9]; 31 g ai/ha) | Plant response rating (0 to 100 scale), Ryegrass, It. ([9]; 125 g ai/ha) | Plant response rating (0 to 100 scale), Kochia ([10]; 31 g ai/ha) | Plant response rating (0 to 100 scale), Kochia ([10]; 125 g ai/ha) | Wheat plant response rating ([11]; 31 g ai/ha) | Wheat plant response rating ([11]; 125 g ai/ha) | Ragweed plant response rating ([12]; 31 g ai/ha) | Ragweed plant response rating ([12]; 125 g ai/ha) | further results |
| --- | --- | --- | --- | --- | --- | --- | --- | --- | --- | --- | --- | --- | --- | --- | --- | --- | --- | --- | --- | --- | --- |
| CC(=O)Oc1c(C)nn(C)c(=O)c1-c1ccc(Cl)c2cc(C)oc12 [Compound 42] | 60 | 0 | 0 | 80 | 30 | 40 | 0 | 40 | 10 | 60 | 10 | 50 | 60 | 90 | 0 | 0 | 0 | 0 | 20 | 10 | Pigweed plant response rating ([13]; 31 g ai/ha): 30; Pigweed plant response rating ([13]; 125 g ai/ha): 50; Corn plant response rating ([14]; 31 g ai/ha): 0; Corn plant response rating ([14]; 125 g ai/ha): 10; Barnyardgrass plant response rating ([15]; 31 g ai/ha): 10; Barnyardgrass plant response rating ([15]; 125 g ai/ha): 40; Blackgrass plant response rating ([16]; 31 g ai/ha): 20; Blackgrass plant response rating ([16]; 125 g ai/ha): 50; Foxtail, Giant plant response rating ([17]; 31 g ai/ha): 10; Foxtail, Giant plant response rating ([17]; 125 g ai/ha): 30; Ryegrass, It. plant response rating ([18]; 31 g ai/ha): 70; Ryegrass, It. plant response rating ([18]; 125 g ai/ha): 90; Kochia plant response rating ([19]; 31 g ai/ha): 0; Kochia plant response rating ([19]; 125 g ai/ha): 0; Galium plant response rating ([20]; 31 g ai/ha): 90; Galium plant response rating ([20]; 125 g ai/ha): 90 |
| Cc1cc2c(Cl)ccc(-c3c(O)c(C)nn(C)c3=O)c2o1 [Compound 43] | 35 | 0 | 0 | 40 | 30 | 30 | 0 | 0 | 10 | 30 | 10 | 40 | 60 | 80 | 0 | 0 | 0 | 10 | 0 | 20 | Pigweed plant response rating ([13]; 31 g ai/ha): 0; Pigweed plant response rating ([13]; 125 g ai/ha): 0; Corn plant response rating ([14]; 31 g ai/ha): 0; Corn plant response rating ([14]; 125 g ai/ha): 0; Barnyardgrass plant response rating ([15]; 31 g ai/ha): 0; Barnyardgrass plant response rating ([15]; 125 g ai/ha): 10; Blackgrass plant response rating ([16]; 31 g ai/ha): 0; Blackgrass plant response rating ([16]; 125 g ai/ha): 50; Foxtail, Giant plant response rating ([17]; 31 g ai/ha): 0; Foxtail, Giant plant response rating ([17]; 125 g ai/ha): 0; Ryegrass, It. plant response rating ([18]; 31 g ai/ha): 50; Ryegrass, It. plant response rating ([18]; 125 g ai/ha): 80; Kochia plant response rating ([19]; 31 g ai/ha): 0; Kochia plant response rating ([19]; 125 g ai/ha): 0; Galium plant response rating ([20]; 31 g ai/ha): 70; Galium plant response rating ([20]; 125 g ai/ha): 80 |
| Cc1cc2c(-c3c(OC(=O)c4ccccc4)c(C)nn(C)c3=O)ccc(Cl)c2o1 [Compound 44] | 0 | 0 | 0 | 0 | 0 | 0 | 0 | 0 | 0 | 0 | 0 | 0 | 0 | 20 | 0 | 0 | 0 | 0 | 0 | 0 | Pigweed plant response rating ([13]; 31 g ai/ha): 0; Pigweed plant response rating ([13]; 125 g ai/ha): 0; Corn plant response rating ([14]; 31 g ai/ha): 0; Corn plant response rating ([14]; 125 g ai/ha): 0; Barnyardgrass plant response rating ([15]; 31 g ai/ha): 0; Barnyardgrass plant response rating ([15]; 125 g ai/ha): 0; Blackgrass plant response rating ([16]; 31 g ai/ha): 0; Blackgrass plant response rating ([16]; 125 g ai/ha): 0; Foxtail, Giant plant response rating ([17]; 31 g ai/ha): 0; Foxtail, Giant plant response rating ([17]; 125 g ai/ha): 0; Ryegrass, It. plant response rating ([18]; 31 g ai/ha): 0; Ryegrass, It. plant response rating ([18]; 125 g ai/ha): 0; Kochia plant response rating ([19]; 31 g ai/ha): 0; Kochia plant response rating ([19]; 125 g ai/ha): 0; Galium plant response rating ([20]; 31 g ai/ha): 0; Galium plant response rating ([20]; 125 g ai/ha): 0 |
